Experimental findings from US20030208067A1, “Inhibitors of protein kinase for the treatment of disease” (priority 2001, published 2003) are described below.

One experiment concerns the target CDK5 complexed with p25 (Homo sapiens, UniProt Q00535). The experiment in a line: Cyclin dependent kinase activity assay (33P peptide phosphorylation). In kind it is biochemical. The following applies: 0.1 mM ATP, read-out: CDK 5 Activity*. How it is done: (§1) The assay of cyclin dependent kinase activity was determined by monitoring the phosphorylation of a synthetic peptide, PKTPKKAKKLRRR. The assay mixture contained 0.1 mM cold ATP, ^33P-γ-ATP (2000-4000 cpm/μL), 0.1 mM peptide, 1 mM DDt, and 10 mM MgCl2 in 100 mM HEPES buffer pH 7.4. The assay mixture, along with inhibitor and CDK enzyme (0.3-0.4 U/mL; either CDK5 complexed with p25, CDK2 complexed with complexed with cyclin A), was mixed together in a microtiter plate in a final volume of 40 μL, sealed and incubated for 2 hours at 30° C. Following incubation, a 15 μL aliquot was added to a Whatman P81 filtration plate containing 100 μL 0.5% phosphoric acid. This mixture was allowed to stand for 5 minutes prior to filtration on a vacuum manifold. The filter plate was washed with 5 successive additions of 300 μL 0.5% phosphoric acid. The filtration plate was air dried for 10 minutes before sealing the bottom. After addition of scintillation fluid to the sealed plate, phosphorylated peptide was quantified in a scintillation counter.

Another experiment addresses KDR (Homo sapiens, UniProt P35968). Put plainly: Enzyme assay for EGFR2 (KDR). The format is biochemical. The following applies: 50 nM KDR; 500 μM ATP. How it is done:
Enzyme assays for IC50 determinations were performed in 96-well titer plates, in a total reaction volume of 50 μL. Each reaction contained 1.5 μL of appropriate dilutions of inhibitor, 50 mM Hepes, pH 7.4, 1 mM DTT, 10 mM magnesium chloride, 2 mM phospho-poly(E4Y) (Sigma Chemical Company), 500 μM unlabeled ATP, 0.0025 μM [^33P]ATP (Amersham Pharmacia Biotech), and 50 nM KDR. All components except KDR were added to the wells, and the reaction was started by the addition of the enzyme. The reactions were mixed and incubated at room temperature for 1 hr, after which the reactions were quenched by the addition of 50 μL of 8% phosphoric acid. At this point, 90 μL aliquots of the samples were applied to positively charged DEAE 96-well filter plates (Millipore Corporation MADENOB10). The plates were incubated for 30 min at room temperature. The samples were aspirated and the wells were washed 3 times with 200 μL of 0.5% phosphoric acid. To each well, 50 μL of scintillation cocktail was added and counted for 60 sec in a TopCount microplate scintillation counter (Packard Instrument Company). The concentration of a compound that inhibited the activity of KDR by 50% (IC50) was determined based its inhibition curve.

For another experiment, the system named is panel of protein kinases. Put plainly: Specificity studies, summary in words. In kind it is biochemical. The following applies: against a panel of protein kinases. How it is done:
The assays of kinases were determined by monitoring the phosphorylation of appropriate substrates. The assay mixture contained 0.1 mM cold ATP ^33P-γ-ATP (2000-4000 cpm/μL), 0.1 mM substrate, 1 mM DTT, and 10 mM MgCl2 in 100 mM HEPES buffer pH 7.4. The assay mixture, along with inhibitor and kinase enzyme (0.3-0.4 U/mL), was mixed together in a microtiter 96-well plate in a final volume of 40 μL, sealed and incbated for 1 hour at 30° C. Following incubation, a 15 μL aliquot was added to a Whatman P81 filtration plate containing 100 μL 0.5% phosphoric acid. This mixture was allowed to stand for 5 minutes prior to filtration on a vacuum manifold. The filter plate was washed with 5 successive additions of 300 μL 0.5% phosporic acid. The filtration plate was air dried for 10 minutes before sealing the bottom. After addition of scintillation fluid to the sealed plate, phosphorylated substrate was quantified in a scintillation counter.

The subject of a further experiment is A549/ATCC. The experiment in a line: In vitro tumor cell efficacy test (SRB cell viability). The format is cell-based. The following applies: Homo sapiens, Non-Small Cell Lung Cancer, 72 hours.
The target of experiment [1] is CDK2 complexed with cyclin A (Homo sapiens, UniProt P24941). The experiment in a line: Cyclin dependent kinase activity assay (33P peptide phosphorylation). The format is biochemical. Conditions: 0.1 mM ATP, read-out: CDK 2 Activity*. Here is the method:
as §1

Broadly, the LC50 is the concentration that kills 50% of the test population. A low value points to greater toxicity.

The structures appear in SMILES notation.

CDK5 complexed with p25, sequence (Q00535 whole entry): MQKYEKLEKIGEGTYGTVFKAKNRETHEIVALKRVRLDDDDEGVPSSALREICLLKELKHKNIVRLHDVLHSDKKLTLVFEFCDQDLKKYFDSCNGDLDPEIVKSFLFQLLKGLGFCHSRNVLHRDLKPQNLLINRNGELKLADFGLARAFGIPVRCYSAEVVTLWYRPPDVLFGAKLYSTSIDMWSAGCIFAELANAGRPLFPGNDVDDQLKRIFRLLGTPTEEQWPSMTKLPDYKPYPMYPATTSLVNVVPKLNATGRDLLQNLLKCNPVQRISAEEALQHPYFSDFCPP
CDK5 complexed with p25, sequence (Q15078 99-307 partner limits assumed): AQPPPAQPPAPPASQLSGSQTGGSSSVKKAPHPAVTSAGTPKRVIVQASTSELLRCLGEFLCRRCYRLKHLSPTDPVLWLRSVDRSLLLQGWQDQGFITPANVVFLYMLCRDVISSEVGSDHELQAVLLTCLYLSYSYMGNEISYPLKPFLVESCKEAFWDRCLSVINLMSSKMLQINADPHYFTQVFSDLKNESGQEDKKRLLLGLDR
KDR, sequence (P35968 20-1356, species assumed): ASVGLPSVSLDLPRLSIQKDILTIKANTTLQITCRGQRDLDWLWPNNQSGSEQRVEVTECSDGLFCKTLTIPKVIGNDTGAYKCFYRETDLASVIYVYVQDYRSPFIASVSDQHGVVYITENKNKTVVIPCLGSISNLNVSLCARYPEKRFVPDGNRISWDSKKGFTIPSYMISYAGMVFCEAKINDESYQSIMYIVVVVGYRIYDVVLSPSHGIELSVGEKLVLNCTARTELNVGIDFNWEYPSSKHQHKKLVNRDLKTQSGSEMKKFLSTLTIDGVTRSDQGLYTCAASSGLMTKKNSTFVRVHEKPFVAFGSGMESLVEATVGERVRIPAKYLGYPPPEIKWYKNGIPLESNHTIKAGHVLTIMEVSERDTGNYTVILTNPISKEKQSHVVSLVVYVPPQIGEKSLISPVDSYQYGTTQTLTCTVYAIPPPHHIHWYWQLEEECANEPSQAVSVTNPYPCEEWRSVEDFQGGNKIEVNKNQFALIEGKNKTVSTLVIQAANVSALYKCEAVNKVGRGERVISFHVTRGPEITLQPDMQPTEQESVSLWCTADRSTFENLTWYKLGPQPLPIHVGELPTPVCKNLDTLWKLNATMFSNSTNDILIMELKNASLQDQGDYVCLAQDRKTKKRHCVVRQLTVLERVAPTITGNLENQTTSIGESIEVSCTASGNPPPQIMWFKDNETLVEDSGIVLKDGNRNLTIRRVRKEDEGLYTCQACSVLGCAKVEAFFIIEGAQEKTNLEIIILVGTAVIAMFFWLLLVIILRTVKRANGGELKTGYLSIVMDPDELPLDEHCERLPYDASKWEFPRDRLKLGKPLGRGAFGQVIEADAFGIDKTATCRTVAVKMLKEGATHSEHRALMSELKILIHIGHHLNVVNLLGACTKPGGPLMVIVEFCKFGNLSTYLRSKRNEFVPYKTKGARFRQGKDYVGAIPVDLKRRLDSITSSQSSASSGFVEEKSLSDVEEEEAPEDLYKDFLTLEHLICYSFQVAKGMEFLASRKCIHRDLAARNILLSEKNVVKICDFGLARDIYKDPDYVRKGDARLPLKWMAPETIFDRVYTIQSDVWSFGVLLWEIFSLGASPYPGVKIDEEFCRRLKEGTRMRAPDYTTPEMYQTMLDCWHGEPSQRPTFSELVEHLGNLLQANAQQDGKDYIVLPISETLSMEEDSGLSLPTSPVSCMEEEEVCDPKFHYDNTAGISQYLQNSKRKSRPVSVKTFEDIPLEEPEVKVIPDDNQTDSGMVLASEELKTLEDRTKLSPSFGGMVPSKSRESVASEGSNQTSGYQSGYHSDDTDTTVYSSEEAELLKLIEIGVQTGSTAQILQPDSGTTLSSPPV

On to `Nc1nc(-c2cc(-c3ccc(O)cc3)ccc2O)cc(N2CCCC2CO)n1` (stereo in doubt) [Example 79, 3-[2-Amino-6-(2R-hydroxymethyl-pyrrolidin-1-yl)-pyrimidin-4-yl]-biphenyl-4,4′-diol], for which the IC50 was less than 500 nM at CDK5 complexed with p25 and 1000 to 20000 nM on KDR.
On to `Nc1nccc(-c2cc(-c3ccc(O)cc3)ccc2O)n1` [3-(2-Amino-pyrimidin-4-yl)-biphenyl-4,4′-diol], for which the “specificity for CDK5 and CDK2” value with panel of protein kinases is recorded as “highly specific”. The molecule also showed an LC50 in the experiment with A549/ATCC greater than 100000 nM.
Consider `NC(=S)N/N=C/c1cc(-c2ccc(CO)cc2)ccc1O` [Example 10, 5-(4-Hydroxymethylphenyl)salicylaldehyde Thiosemicarbazone], for which the IC50 lay within 2000 to 5000 nM in experiment [1] and 500 to 2000 nM on CDK5 complexed with p25.
As to `NC(=O)/C=C/c1ccc(O)c(/C=N/NC(N)=S)c1` [Example 39, 3-Formyl-4-hydroxycinnamide, Thiosemicarbazone], the IC50 was 500 to 2000 nM in experiment [1] and greater than 5000 nM on CDK5 complexed with p25.
